# Experimental data published in ChEMBL document CHEMBL5226380, “O-Alkylazoxymycins A-F, Naturally Occurring Azoxy-Aromatic Compounds from Streptomyces sp. Py50” (2023).
# Structures can show the parent of a compound that is named as a salt.
# Test system: Epidermophyton floccosum
# Assay: Antifungal activity against Epidermophyton floccosum assessed as inhibition of fungal growth incubated for 24 hrs
# Assay type: functional
row,MIC50,SMILES
1,10.1 µM,O=C(O)CCCCCCc1ccccc1/[N+]([O-])=N/c1ccccc1CCCCC(=O)O
2,51.2 µM,O=C(O)CCCCCCc1ccccc1/N=[N+](\[O-])c1ccccc1CCCCCCC(=O)O
3,0.003 µM,CN(C/C=C/C#CC(C)(C)C)Cc1cccc2ccccc12 [TERBINAFINE HYDROCHLORIDE]
4,23.1 µM,O=C(O)CCCCCCc1ccccc1/N=[N+](\[O-])c1ccccc1CCCCC(=O)O
